Columns and labels:
velvetleaf [1] = experiment: Test A pre-/postemergence herbicide test; format: in vivo, Abutilon theophrasti
In short: (§1)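 Visual injury rating on a 0–100 scale (0 no effect, 100 complete control) versus untreated controls, about ten days after treatment in greenhouse. Pre: directed soil spray onto seeded sandy loam. Post: spray to runoff on plants 2–10 cm tall at one- to two-leaf stage.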

yellow nutsedge = experiment: Test C pre-/postemergence herbicide test; format: in vivo, Cyperus esculentus
In short: (§2)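 Pre- and postemergence application, solvent/surfactant formulation; post at 1- to 4-leaf stage (2–18 cm). Greenhouse 12–14 d. Visual rating vs controls, 0 = no effect, 100 = complete control.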

corn = experiment: Test C pre-/postemergence herbicide test; format: in vivo, Zea mays
In short: as §2

common ragweed = experiment: Test C pre-/postemergence herbicide test; format: in vivo, Ambrosia elatior; design: key to Plant response rating, Ragweed: 0 = no effect, 100 = complete control
In short: as §2

redroot pigweed = experiment: Test A pre-/postemergence herbicide test; format: in vivo, Amaranthus retroflexus
In short: as §1

velvetleaf [2] = experiment: Test C pre-/postemergence herbicide test; format: in vivo, Abutilon theophrasti
In short: as §2

large crabgrass = experiment: Test C pre-/postemergence herbicide test; format: in vivo, Digitaria sanguinalis
In short: as §2

eastern black nightshade = experiment: Test C pre-/postemergence herbicide test; format: in vivo, Solanum ptycanthum; conditions: for Plant response rating, Nightshade / Plant response rating (0 = no effect, 100 = complete control), Nightshade: preemergence
In short: as §2

barnyardgrass = experiment: Test A pre-/postemergence herbicide test; format: in vivo, Echinochloa crus-galli
In short: as §1

cocklebur = experiment: Test C pre-/postemergence herbicide test; format: in vivo, Xanthium strumarium
In short: as §2

[3] = Postemergence, 500 g ai/ha, 0 to 100 scale, 0 no effect, 100 complete control
[4] = Postemergence, 2000 g ai/ha, 0 to 100 scale, 0 no effect, 100 complete control
[5] = Preemergence, 2000 g ai/ha, visual rating, 0 to 100 scale (0 no effect, 100 complete control)
[6] = preemergence, 500 g ai/ha, visual injury, 0 to 100 scale (0 no effect, 100 complete control)
[7] = 62 g ai/ha, preemergence, scale 0 to 100
[8] = 500 g ai/ha, scale 0 to 100 (0 no effect, 100 complete control), visual, 12 to 14 days, preemergence
[9] = 250 g ai/ha, scale 0-100, preemergence
[10] = Preemergence, 500 g ai/ha, visual rating, 0 to 100 scale (0 no effect, 100 complete control)
[11] = Preemergence, 2000 g ai/ha, 0 to 100 scale, 0 no effect, 100 complete control
[12] = 31 g ai/ha, preemergence, scale 0 to 100
[13] = 125 g ai/ha, scale 0 (no effect) to 100 (complete control), visual, 12 to 14 days, preemergence
[14] = 250 g ai/ha, scale 0 to 100 (0 no effect, 100 complete control), visual, 12 to 14 days, preemergence
[15] = Postemergence, 250 g ai/ha, scale 0 to 100, 0 no effect, 100 complete control
[16] = postemergence, 125 g ai/ha, scale 0 to 100
[17] = postemergence, 62 g ai/ha, scale 0 to 100
[18] = 125 g ai/ha, scale 0 (no effect) to 100 (complete control), visual, 12 to 14 days
[19] = Preemergence, 500 g ai/ha, scale 0 to 100, 0 no effect, 100 complete control

SMILES: CCc1nn(C(C)(C)C)nc1C(=O)Nc1cccc(C(=O)NC2CC2)c1 [Compound 417]
- Velvetleaf plant response rating (velvetleaf [1]; [3]): 60
- Plant response rating, Velvetleaf (velvetleaf [1]; [4]): 90
- Velvetleaf plant response rating (velvetleaf [1]; [5]): 70
- Velvetleaf plant response rating (velvetleaf [1]; [6]): 55
- Plant response rating, Nutsedge, Yellow (yellow nutsedge; [7]): 0
- Plant response rating (0 = no effect, 100 = complete control), Nutsedge, Yellow (yellow nutsedge; 125 g ai/ha, preemergence): 0
- Plant response rating, Nutsedge, Yellow (yellow nutsedge; [8]): 0
- Plant response rating, Corn (corn; [7]): 0
- Plant response rating (0 = no effect, 100 = complete control), Corn (corn; 125 g ai/ha, preemergence): 0
- Plant response rating, Corn (corn; [9]): 10
- Plant response rating, Corn (corn; [8]): 65
- Plant response rating, Ragweed (common ragweed; [7]): 0
- Plant response rating (0 = no effect, 100 = complete control), Ragweed (common ragweed; 125 g ai/ha, preemergence): 20
- Plant response rating, Ragweed (common ragweed; [8]): 90
- Pigweed plant response rating (redroot pigweed; [3]): 100
- Plant response rating, Pigweed (redroot pigweed; [4]): 100
- Pigweed plant response rating (redroot pigweed; [5]): 100
- Pigweed plant response rating (redroot pigweed; [6]): 95
- Plant response rating, Velvetleaf (velvetleaf [2]; [7]): 75
- Plant response rating (0 = no effect, 100 = complete control), Velvetleaf (velvetleaf [2]; 125 g ai/ha, preemergence): 100
- Plant response rating, Velvetleaf (velvetleaf [2]; [8]): 100
- Plant response rating, Crabgrass, Large (large crabgrass; [7]): 100
- Plant response rating (0 = no effect, 100 = complete control), Crabgrass, Large (large crabgrass; 125 g ai/ha, preemergence): 100
- Plant response rating, Crabgrass, Large (large crabgrass; [9]): 100
- Plant response rating, Crabgrass, Large (large crabgrass; [8]): 100
- Plant response rating, Nightshade (eastern black nightshade; 62 g ai/ha, scale 0 to 100): 55
- Plant response rating (0 = no effect, 100 = complete control), Nightshade (eastern black nightshade; 125 g ai/ha): 60
- Plant response rating, Nightshade (eastern black nightshade; 500 g ai/ha, scale 0 to 100 (0 no effect, 100 complete control), visual, 12 to 14 days): 95
- Barnyardgrass plant response rating (barnyardgrass; [3]): 65
- Plant response rating, Barnyardgrass (barnyardgrass; [4]): 80
- Barnyardgrass plant response rating (barnyardgrass; [5]): 85
- Barnyardgrass plant response rating (barnyardgrass; [6]): 60
- Plant response rating, Cocklebur (cocklebur; [7]): 0
- Plant response rating (0 = no effect, 100 = complete control), Cocklebur (cocklebur; 125 g ai/ha, preemergence): 0
- Plant response rating, Cocklebur (cocklebur; [9]): 0
- Plant response rating, Cocklebur (cocklebur; [8]): 0

SMILES: CCn1nc(C(C)(C)C)cc1C(=O)Nc1ccc(F)c(C(=O)NCCF)c1 [Compound 60]
- Plant response rating, Velvetleaf (velvetleaf [1]; [4]): 20
- Velvetleaf plant response rating (velvetleaf [1]; [10]): 65
- Velvetleaf plant response rating (velvetleaf [1]; [11]): 95
- Plant response rating, Nutsedge, Yellow (yellow nutsedge; [12]): 0
- Plant response rating (0 = no effect, 100 = complete control), Nutsedge, Yellow (yellow nutsedge; 62 g ai/ha, preemergence): 0
- Plant response rating, Nutsedge, Yellow (yellow nutsedge; [13]): 0
- Plant response rating, Nutsedge, Yellow (yellow nutsedge; [14]): 5
- Plant response rating, Nutsedge, Yellow (yellow nutsedge; [15]): 0
- Plant response rating, Nutsedge, Yellow (yellow nutsedge; [16]): 0
- Plant response rating, Nutsedge, Yellow (yellow nutsedge; [17]): 0
- Plant response rating, Corn (corn; [12]): 0
- Plant response rating (0 = no effect, 100 = complete control), Corn (corn; 62 g ai/ha, preemergence): 0
- Plant response rating, Corn (corn; [13]): 0
- Plant response rating, Corn (corn; [14]): 0
- Plant response rating, Corn (corn; [15]): 0
- Plant response rating, Corn (corn; [16]): 0
- Plant response rating, Corn (corn; [17]): 0
- Plant response rating, Ragweed (common ragweed; [12]): 0
- Plant response rating (0 = no effect, 100 = complete control), Ragweed (common ragweed; 62 g ai/ha, preemergence): 10
- Plant response rating, Ragweed (common ragweed; [13]): 80
- Plant response rating, Ragweed (common ragweed; [14]): 95
- Plant response rating, Ragweed (common ragweed; [15]): 5
- Plant response rating, Ragweed (common ragweed; [16]): 5
- Plant response rating, Ragweed (common ragweed; [17]): 0
- Plant response rating, Pigweed (redroot pigweed; [3]): 40
- Plant response rating, Pigweed (redroot pigweed; [4]): 95
- Pigweed plant response rating (redroot pigweed; [10]): 95
- Pigweed plant response rating (redroot pigweed; [11]): 100
- Plant response rating, Velvetleaf (velvetleaf [2]; [12]): 5
- Plant response rating, Velvetleaf (velvetleaf [2]; [13]): 70
- Plant response rating, Velvetleaf (velvetleaf [2]; [14]): 85
- Plant response rating, Velvetleaf (velvetleaf [2]; [15]): 30
- Plant response rating, Velvetleaf (velvetleaf [2]; [16]): 20
- Plant response rating, Velvetleaf (velvetleaf [2]; [17]): 20
- Plant response rating, Crabgrass, Large (large crabgrass; [12]): 80
- Plant response rating (0 = no effect, 100 = complete control), Crabgrass, Large (large crabgrass; 62 g ai/ha, preemergence): 90
- Plant response rating, Crabgrass, Large (large crabgrass; [13]): 90
- Plant response rating, Crabgrass, Large (large crabgrass; [14]): 95
- Plant response rating, Crabgrass, Large (large crabgrass; [15]): 5
- Plant response rating, Crabgrass, Large (large crabgrass; [16]): 0
- Plant response rating, Crabgrass, Large (large crabgrass; [17]): 0
- Plant response rating, Nightshade (eastern black nightshade; 31 g ai/ha, scale 0 to 100): 10
- Plant response rating (0 = no effect, 100 = complete control), Nightshade (eastern black nightshade; 62 g ai/ha): 30
- Plant response rating, Nightshade (eastern black nightshade; [18]): 90
- Plant response rating, Nightshade (eastern black nightshade; 250 g ai/ha, scale 0 to 100 (0 no effect, 100 complete control), visual, 12 to 14 days): 90
- Plant response rating, Barnyardgrass (barnyardgrass; [3]): 35
- Plant response rating, Barnyardgrass (barnyardgrass; [4]): 70
- Barnyardgrass plant response rating (barnyardgrass; [10]): 50
- Barnyardgrass plant response rating (barnyardgrass; [11]): 85
- Plant response rating, Cocklebur (cocklebur; [12]): 0
- Plant response rating (0 = no effect, 100 = complete control), Cocklebur (cocklebur; 62 g ai/ha, preemergence): 0
- Plant response rating, Cocklebur (cocklebur; [13]): 0
- Plant response rating, Cocklebur (cocklebur; [14]): 5
- Plant response rating, Cocklebur (cocklebur; [15]): 10
- Plant response rating, Cocklebur (cocklebur; [16]): 10
- Plant response rating, Cocklebur (cocklebur; postemergence, 31 g ai/ha, scale 0 to 100): 10
- Plant response rating, Cocklebur (cocklebur; [17]): 10

SMILES: CCNC(=O)c1cc(C)nc(NC(=O)c2cc(C(C)(C)C)nn2CC)c1 [Compound 149]
- Velvetleaf plant response rating (velvetleaf [1]; [3]): 30
- Plant response rating, Velvetleaf (velvetleaf [1]; [4]): 40
- Velvetleaf plant response rating (velvetleaf [1]; [5]): 25
- Velvetleaf plant response rating (velvetleaf [1]; [6]): 0
- Plant response rating, Nutsedge, Yellow (yellow nutsedge; [7]): 0
- Plant response rating, Nutsedge, Yellow (yellow nutsedge; [13]): 0
- Nutsedge, Yellow plant response rating (yellow nutsedge; [19]): 0
- Plant response rating, Corn (corn; [7]): 0
- Plant response rating, Corn (corn; [13]): 0
- Plant response rating, Corn (corn; [14]): 10
- Corn plant response rating (corn; [19]): 10
- Plant response rating, Ragweed (common ragweed; [7]): 0
- Plant response rating, Ragweed (common ragweed; [13]): 0
- Ragweed plant response rating (common ragweed; [19]): 5
- Pigweed plant response rating (redroot pigweed; [3]): 65
- Plant response rating, Pigweed (redroot pigweed; [4]): 90
- Pigweed plant response rating (redroot pigweed; [5]): 95
- Pigweed plant response rating (redroot pigweed; [6]): 90
- Plant response rating, Velvetleaf (velvetleaf [2]; [7]): 0
- Plant response rating, Velvetleaf (velvetleaf [2]; [13]): 0
- Velvetleaf plant response rating (velvetleaf [2]; [19]): 60
- Plant response rating, Crabgrass, Large (large crabgrass; [7]): 20
- Plant response rating, Crabgrass, Large (large crabgrass; [13]): 90
- Plant response rating, Crabgrass, Large (large crabgrass; [14]): 100
- Crabgrass, Large plant response rating (large crabgrass; [19]): 100
- Plant response rating, Nightshade (eastern black nightshade; 62 g ai/ha, scale 0 to 100): 80
- Plant response rating, Nightshade (eastern black nightshade; [18]): 80
- Nightshade plant response rating (eastern black nightshade; [19]): 95
- Barnyardgrass plant response rating (barnyardgrass; [3]): 45
- Plant response rating, Barnyardgrass (barnyardgrass; [4]): 65
- Barnyardgrass plant response rating (barnyardgrass; [10]): 70
- Barnyardgrass plant response rating (barnyardgrass; [5]): 90
- Plant response rating, Cocklebur (cocklebur; [7]): 0
- Plant response rating, Cocklebur (cocklebur; [13]): 0
- Plant response rating, Cocklebur (cocklebur; [14]): 0
- Cocklebur plant response rating (cocklebur; [19]): 0
